Source: US9163021B2, “Pyrrolo[3,2-c]pyridine tropomyosin-related kinase inhibitors” (Pfizer Limited, priority 2012, dated 2015)

Target: TRKA (Homo sapiens (Human), UniProt P04629)
Assay: Isolated TRK enzyme assay (HTRF KinEASE-TK), PV3144 TrkA enzyme assay
Type: biochemical
Conditions: arithmetic mean where more than one reading
Procedure: Isolated TRK Enzyme assays use the HTRF KinEASE-TK kit (Cisbio Cat#62TK0PEJ) with recombinant His-tagged cytoplasmic domains of each TRK receptor sourced from Invitrogen (see table below). This activity-assay measures the phosphorylation of tyrosine residues within a substrate from the HTRF kit which has been validated by Cisbio for a variety of tyrosine kinases including the TRK receptors.
0.5 mM stock solutions of test compounds are prepared and serially diluted in 100% DMSO. A standard curve using the compound of Example 135 disclosed in WO2005/116035 of 150 uM is also prepared on each test plate. High percentage effect (HPE) is defined by 150 uM (using the compound of Example 135 as disclosed in WO2005/116035) and 0% effect (ZPE) is defined by 100% DMSO. Greiner low volume black plates containing 0.2 ul of serially diluted compound, standard and HPE/ZPE are created using the Bravo nanoliter dispenser.
1× enzyme buffer is prepared from 5× Enzymatic Buffer from the Cisbio KinEASE TK kit using MilliQ water. The buffer is then supplemented with 10 mM MgCI and 2 mM DTT (both from Sigma). In the case of TRKB, the buffer is also supplemented with 125 nM Supplement Enzymatic Buffer (SEB) from the Cisbio kit.
2× FAC of enzyme and 2× FAC ATP diluted in 1× complete enzyme buffer is incubated at room temperature for 20 minutes to preactivate the enzyme. Following this preactivation step, 5 ul/well of enzyme+ATP mix is added using a Multidrop Micro to the assay plate, spotted with 0.2 ul 100% DMSO compound. This is left for 20 mins at room temperature before adding 5 ul of 2 uM TK-substrate-Biotin (from the Cisbio kit) diluted in 1× enzyme buffer (1 uM FAC) using the Multidrop Micro. The reaction is incubated at room temperature for the optimized assay reaction time (see table). The reaction is stopped by adding 10 ul/well HTRF Detection Buffer containing 0.25 uM Streptavidin-XL665 (0.125 uM FAC) and 1:200 TK Antibody-Cryptate using a Multidrop.
After the Detection Reagent addition, plates are covered and incubated at room temperature for 60 minutes. HTRF signal is read using an Envision reader, measured as a ratio of emissions at two different wavelengths, 620 nm and 665 nm. […] Test compound data are expressed as percentage inhibition defined by HPE and ZPE values for each plate. Percentage inhibition in the presence of test compound is plotted against compound concentration on a log scale to determine an IC50 from the resultant sigmoid curve.
Where more than one reading was taken, the arithmetic mean is presented.

Chain of TRKA (P04629 441-796): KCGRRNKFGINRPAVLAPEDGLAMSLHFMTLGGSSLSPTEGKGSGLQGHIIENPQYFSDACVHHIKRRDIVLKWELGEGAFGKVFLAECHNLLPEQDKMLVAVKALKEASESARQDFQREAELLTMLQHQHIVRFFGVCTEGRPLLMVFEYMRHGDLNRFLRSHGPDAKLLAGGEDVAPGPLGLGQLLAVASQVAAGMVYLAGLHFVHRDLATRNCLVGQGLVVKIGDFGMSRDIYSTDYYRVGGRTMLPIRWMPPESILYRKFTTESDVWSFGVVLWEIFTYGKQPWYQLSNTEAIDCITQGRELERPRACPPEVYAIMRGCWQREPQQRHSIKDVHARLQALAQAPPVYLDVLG

Structure (SMILES) | IC50 [nM]
COc1cccc(CC(=O)Nc2cc(C(=O)c3cn(C(C)C)c4ccncc34)ccn2)c1 [Example 108, 2-(3-methoxyphenyl)-N-(4-{[1-(propan-2-yl)-1H-pyrrolo[3,2-c]pyridin-3-yl]carbonyl}pyridin-2-yl)acetamide] | 640
O=C(Cc1ccc(F)cc1)Nc1cc(C(=O)c2cn(C3COC3)c3ccncc23)ccn1 [Example 204, 2-(4-fluorophenyl)-N-(4-{[1-(oxetan-3-yl)-1H-pyrrolo[3,2-c]pyridin-3-yl]carbonyl}pyridin-2-yl)acetamide] | 227
CC(C)n1cc(C(=O)c2cc(NC(=O)Cn3cc(C(F)(F)F)nn3)ccn2)c2cncc(F)c21 [Example 83, N-(2-{[7-fluoro-1-(propan-2-yl)-1H-pyrrolo[3,2-c]pyridin-3-yl]carbonyl}pyridin-4-yl)-2[4-(trifluoromethyl)-1H-1,2,3-triazol-1-yl]acetamide] | 344
CC(C)n1cc(C(=O)c2cc(NC(=O)Cc3ccc(Cl)cc3)ccn2)c2cncc(F)c21 [Example 85, 2-(4-chlorophenyl)-N-(2-{[7-fluoro-1-(propan-2-yl)-1H-pyrrolo[3,2-c]pyridin-3-yl]carbonyl}pyridin-4-yl)acetamide] | 23.3
Cc1nc(C)c(CC(=O)Nc2cc(C(=O)c3cn(C(C)C)c4ccncc34)ccn2)s1 [Example 167, 2-(2,4-dimethyl-1,3-thiazol-5-yl)-N-(4-{[1-(propan-2-yl)-1H-pyrrolo[3,2-c]pyridin-3-yl]carbonyl}pyridin-2-yl)acetamide] | 181
CC(C)(CO)n1cc(C(=O)c2cncc(NC(=O)Cc3ccc(Cl)cn3)c2)c2cncc(F)c21 [Example 3, 2-(5-Chloro-pyridin-2-yl)-N-{5-[7-fluoro-1-(2-hydroxy-1,1-dimethyl-ethyl)-1H-pyrrolo[3,2-c]pyridine-3-carbonyl]-pyridin-3-yl}-acetamide] | 7.85
CC(C)(CO)n1cc(C(=O)c2cncc(NC(=O)Cc3ccc(Cl)cn3)c2)c2cnccc21 [Example 8, 2-(5-Chloro-pyridin-2-yl)-N-{5-[1-(2-hydroxy-1,1-dimethyl-ethyl)-1H-pyrrolo[3,2-c]pyridine-3-carbonyl]-pyridin-3-yl}-acetamide] | 38.5
Cc1oc(C2CC2)nc1CC(=O)Nc1cc(C(=O)c2cn(C(C)C)c3ccncc23)ccn1 [Example 78, 2-(2-cyclopropyl-5-methyl-1,3-oxazol-4-yl)-N-(4-{[1-(propan-2-yl)-1H-pyrrolo[3,2-c]pyridin-3-yl]carbonyl}pyridin-2-yl)acetamide] | 15.8
COCc1nc(CC(=O)Nc2cc(C(=O)c3cn(C(C)C)c4ccncc34)ccn2)c(C2CC2)o1 [Example 80, 2-[5-cyclopropyl-2-(methoxymethyl)-1,3-oxazol-4-yl]-N-(4-{[1-(propan-2-yl)-1H-pyrrolo[3,2-c]pyridin-3-yl]carbonyl}pyridin-2-yl)acetamide] | 357
CC(C)(CO)n1cc(C(=O)c2cncc(NC(=O)Cc3cccc(C(F)(F)F)c3)c2)c2cnccc21 [Example 235, N-(5-{[1-(1-hydroxy-2-methylpropan-2-yl)-1H-pyrrolo[3,2-c]pyridin-3-yl]carbonyl}pyridin-3-yl)-2-[3-(trifluoromethyl)phenyl]acetamide] | 2.87
O=C(Nc1cc(C(=O)c2cn(CCO)c3ccncc23)ccn1)c1cccc(OC(F)(F)F)c1 [Example 142, N-(4-{[1-(2-hydroxyethyl)-1H-pyrrolo[3,2-c]pyridin-3-yl]carbonyl}pyridin-2-yl)-3-(trifluoromethoxy)benzamide] | 29.9
CC(C)(CO)n1cc(C(=O)c2cncc(NC(=O)Cn3cc(C(F)(F)F)nn3)c2)c2cncc(F)c21 [Example 94, N-(5-{[7-fluoro-1-(1-hydroxy-2-methylpropan-2-yl)-1H-pyrrolo[3,2-c]pyridin-3-yl]carbonyl}pyridin-3-yl)-2-[4-(trifluoromethyl)-1H-1,2,3-triazol-1-yl]acetamide] | 20
CC(C)n1cc(C(=O)c2cc(NC(=O)Cc3ccc(C#N)cn3)ccn2)c2cnccc21 [Example 140, 2-(5-cyanopyridin-2-yl)-N-(2-{[1-(propan-2-yl)-1H-pyrrolo[3,2-c]pyridin-3-yl]carbonyl}pyridin-4-yl)acetamide] | 207
O=C(Cn1nccn1)Nc1cc(C(=O)c2cn(CCO)c3ccncc23)ccn1 [Example 158, N-(4-{[1-(2-hydroxyethyl)-1H-pyrrolo[3,2-c]pyridin-3-yl]carbonyl}pyridin-2-yl)-2-(2H-1,2,3-triazol-2-yl)acetamide] | 9800
O=C(Cc1ccc(C(F)(F)F)cc1)Nc1cc(C(=O)c2cn(CCO)c3ccncc23)ccn1 [Example 141, N-(4-{[1-(2-hydroxyethyl)-1H-pyrrolo[3,2-c]pyridin-3-yl]carbonyl}pyridin-2-yl)-2-[4-(trifluoromethyl)phenyl]acetamide] | 20.2

The remaining lines, values ahead:

IC50 [nM] | Structure (SMILES)
28.6 | CC(C)n1cc(C(=O)c2cncc(NC(=O)Cc3cccc(Cl)c3)c2)c2cnccc21 [Example 126, 2-(3-chlorophenyl)-N-(5-{[1-(propan-2-yl)-1H-pyrrolo[3,2-c]pyridin-3-yl]carbonyl}pyridin-3-yl)acetamide]
3080 | CC(C)n1cc(C(=O)c2cncc(NC(=O)Cc3nccn3C)c2)c2cnccc21 [Example 46, 2-(1-methyl-1H-imidazol-2-yl)-N-(5-{[1-(propan-2-yl)-1H-pyrrolo[3,2-c]pyridin-3-yl]carbonyl}pyridin-3-yl)acetamide]
121 | CC(CO)n1cc(C(=O)c2cncc(NC(=O)Cn3cc(C4CC4)nn3)c2)c2cnccc21 (single isomer, unassigned) [Example 76, 2-(4-cyclopropyl-1H-1,2,3-triazol-1-yl)-N-(5-{[1-(1-hydroxypropan-2-yl)-1H-pyrrolo[3,2-c]pyridin-3-yl]carbonyl}pyridin-3-yl)acetamide]
21.4 | Cc1cnn(CC(=O)Nc2cncc(C(=O)c3cn(C(C)C)c4ccncc34)c2)c1 [Example 25, 2-(4-methyl-1H-pyrazol-1-yl)-N-(5-{[1-(propan-2-yl)-1H-pyrrolo[3,2-c]pyridin-3-yl]carbonyl}pyridin-3-yl)acetamide]
10.7 | CC(C)n1cc(C(=O)c2ccnc(NC(=O)Cn3cc(C(F)(F)F)nn3)c2)c2cnccc21 [Example 163, N-(4-{[1-(propan-2-yl)-1H-pyrrolo[3,2-c]pyridin-3-yl]carbonyl}pyridin-2-yl)-2-[4-(trifluoromethyl)-1H-1,2,3-triazol-1-yl]acetamide]
1570 | CC(C)n1cc(C(=O)c2cncc(NC(=O)Cc3cncn3C)c2)c2cnccc21 [Example 45, 2-(1-methyl-1H-imidazol-5-yl)-N-(5-{[1-(propan-2-yl)-1H-pyrrolo[3,2-c]pyridin-3-yl]carbonyl}pyridin-3-yl)acetamide]
149 | CC(C)n1ncc(CC(=O)Nc2cncc(C(=O)c3cn(C(C)CO)c4ccncc34)c2)c1C(F)(F)F (single isomer, unassigned) [Example 71, N-(5-{[1-(1-hydroxypropan-2-yl)-1H-pyrrolo[3,2-c]pyridin-3-yl]carbonyl}pyridin-3-yl)-2-[1-(propan-2-yl)-5-(trifluoromethyl)-1H-pyrazol-4-yl]acetamide]
37.6 | CC(CO)n1cc(C(=O)c2cncc(NC(=O)Cc3ccc(Cl)cn3)c2)c2cnccc21 (single isomer, unassigned) [Example 66, 2-(5-chloropyridin-2-yl)-N-(5-{[1-(1-hydroxypropan-2-yl)-1H-pyrrolo[3,2-c]pyridin-3-yl]carbonyl}pyridin-3-yl)acetamide]
